Laboratory results reported in US9422309B2, “3-O-heteroaryl-ingenol” (LEO LABORATORIES LIMITED, priority 2012, dated 2016).

Experiments:
Format in all cases: cell-based
[1] = system: PMN's (polymorphonuclear leukocytes); test: Neutrophil oxidative burst; details: Leukocyte, 40 min; 40 min incubation at rt; normalised to 5×10^−7 M PEP0005; read-out: Neutrophil oxidative burst Rel EC50 range
Experimental: PMN's (polymorphonuclear leukocytes) are isolated and purified from fresh buffy coats by sequential sedimentation, density centrifugation and lysis of contaminating erythrocytes. In brief, buffy coats are incubated with 2% methocel for 30-45 min to differentially sediment red blood cells. The leukocyte-rich supernatant is transferred to lymphoprep tubes to remove mononuclear cells by density centrifugation (400×g, 30 min). The pellet is resuspended and any remaining erythrocytes lysed using 0.2% NaCl for 30 sec before restoring isotonicity by the addition of 1.2% NaCl. This step is repeated until the cell pellet appears relatively free of red blood cells. Cells are resuspended in DPBS (Dulbecco's Phosphate Buffered Saline) (w.o. Ca^2+, Mg^2+) and the concentration adjusted to 1.4×10^6 cells/ml in HBSS (Hanks Balanced Salt solution) (w Ca^2+, Mg^2+) containing 0.1% BSA (Bovine Serum Albumin) and 5 mM glucose just prior to assay initiation. Titrated reference and test compounds are pre-mixed with HE (Hydroethidine) (10 μM final assay concentration) before addition to 96-well plates containing 2.5×10^5 cells. Following 40 min incubation at rt, changes in the respiratory burst is estimated by measuring fluorescence at 579 nm (excitation: 485 nm) using an Envision plate reader.
Test compound titration curves are fitted to a four-parameter sigmoidal curve after normalizing the effect of the test compound to the effect of the positive control (5×10^−7 M PEP0005). Rel EC50 denotes the concentration of test compound producing an effect that is midway between the fitted top and bottom. Abs EC50 is the concentration of test compound that provokes a response corresponding to 50% of the maximal effect associated with the positive control (5×10^−7 M PEP0005).

[2] = system: Primary human epidermal keratinocytes, HeKa; test: HeKa cytokine release (IL-8); details: 6 h at 37° C., normalised to 1.5×10^−7 M PEP0005, read-out: HeKa cytokine release (IL-8) Rel EC50 range
Experimental: Primary human epidermal keratinocytes, HeKa, are seeded (10.000 cells/well) in 96-well plates the day before the assay. Test compounds are diluted in DMSO (dimethyl sulfoxide) and further diluted in assay medium and pipetted into wells of 96 well-plates containing HeKa cells. The plates are incubated for 6 h at 37° C. in humidified air with 5% CO2. Plates are centrifuged briefly to spin down cells at 4° C., the supernatant is removed and analysed by Meso Scale Discovery (MSD) 4-spot cytokine assay (Pro-inflammatory II Ultra Sensitive kit, MSD, MD, USA). The MSD assay employs a sandwich immunoassay format where capture antibodies are coated in a patterned array on the bottom of the wells of a 4-Spot-Multi-MSD plate. Standard samples are incubated in the MULTI-SPOT plates as well, and the cytokine (IL-8) binds to its corresponding capture antibody spot. The cytokine level is quantitated on a SECTOR™ Imager using a cytokine-specific Detection Antibody labelled with MSD SULFO-TAG™ reagent.
Test compound titration curves are fitted to a four-parameter sigmoidal curve after normalizing the effect of the test compound to the effect of the positive control (1.5×10^−7 M PEP0005). Rel EC50 denotes the concentration of test compound producing an effect that is midway between the fitted top and bottom.

HeLa cells = test: Necrosis assay; details: Homo sapiens, 0.5 h, 30 min at 37° C., PrestoBlue, normalised to 4 10^−4 M PEP0005/ingenol mebutate, read-out: HeLa necrosis EC50 range
Experimental: HeLa cells (ATCC CCL-002) were grown in minimal essential medium (Invitrogen catalog no. 42360) containing 10% fetal bovine serum, 100 IU/ml penicillin and 100 μg/ml streptomycin. 4,000-6,000 cells were seeded into 96-well black ViewPlates-plates, clear bottom, (Perkin Elmer) in 100 μl medium and incubated overnight. Compounds were dissolved and pre-diluted in DMSO in 96-well polypropylene plates (Greiner) in a concentration range of 15 μM to 600 μM. At the time of the experiment cell plates were placed on heating blocks at 37° C., medium was removed and 40 μl fresh, pre-warmed medium was added per well. Cells were incubated for 15 min before addition of compounds. In parallel, 3 μl of compounds were diluted with 197 μl growth medium on a Tecan freedom-EVO pipetting station using 250 μl/s pipetting speed, in order to ensure effective mixing of the highly concentrated compound solutions with the aqueous phase.
These pre-dilution plates were then equilibrated on heating blocks at 37° C. for 10 min. 80 μl pre-diluted compound were transferred manually to the corresponding wells containing HeLa cells yielding compound concentrations of 10 μM to 400 μM. Control conditions were 1% DMSO in growth medium (100% viability) and 400 μM ingenol mebutate in growth medium (0% viability). Plates were incubated on the heating blocks at 37° C. for 30 min. At the end of the incubation 10 μl PrestoBlue reagent (Invitrogen) were added to each well, plates were sealed with black seal, followed by incubation at 37° C. for 10 min with gentle shaking (150 rpm). Subsequently, plates were placed at room temperature for 20-30 min. Plates were read immediately after on an Envision Fluorescence reader (Perkin Elmer) with excitation at 535 nm and emission at 630 nm. Test compound titration curves were fitted to a four-parameter sigmoidal curve after normalizing the effect of the test compound to the effect of the positive control (4 10^−4 M PEP0005/ingenol mebutate). Abs EC50 denotes the concentration of test compound producing 50% effect.

SMILES | EC50 [1] [nM] | EC50 [2] [nM] | EC50 (HeLa cells) [nM]
CC1=C[C@]23C(=O)[C@@H](C=C(CO)[C@@H](O)[C@]2(O)[C@H]1Oc1noc2cc(Cl)ccc12)[C@H]1[C@@H](C[C@H]3C)C1(C)C [Compound 125, 3-O-(6-Chloro-1,2-benzoxazol-3-yl)-ingenol] | < 20 | < 20 | < 150000
CC1=C[C@]23C(=O)[C@@H](C=C(CO)[C@@H](O)[C@]2(O)[C@H]1Oc1ccccn1)[C@H]1[C@@H](C[C@H]3C)C1(C)C [Compound 106, 3-O-(2-Pyridyl)-ingenol] | ≥ 100 | 20 to 100 | ≥ 350000
CC1=C[C@]23C(=O)[C@@H](C=C(CO)[C@@H](O)[C@]2(O)[C@H]1Oc1noc2ccc(Cl)cc12)[C@H]1[C@@H](C[C@H]3C)C1(C)C [Compound 131, 3-O-(5-Chloro-1,2-benzoxazol-3-yl)-ingenol] | < 20 | < 20 | < 150000
CC1=C[C@]23C(=O)[C@@H](C=C(CO)[C@@H](O)[C@]2(O)[C@H]1Oc1ncccc1C)[C@H]1[C@@H](C[C@H]3C)C1(C)C [Compound 124, 3-O-(3-Methyl-2-pyridyl)-ingenol] | ≥ 100 | ≥ 100 | ≥ 350000
CC1=C[C@]23C(=O)[C@@H](C=C(CO)[C@@H](O)[C@]2(O)[C@H]1Oc1nn(C)c2ccccc12)[C@H]1[C@@H](C[C@H]3C)C1(C)C [Compound 107, 3-O-(1-Methylindazol-3-yl)-ingenol] | ≥ 100 | ≥ 100 | 150000 to 350000
CC1=C[C@]23C(=O)[C@@H](C=C(CO)[C@@H](O)[C@]2(O)[C@H]1Oc1ncccc1F)[C@H]1[C@@H](C[C@H]3C)C1(C)C [Compound 112, 3-O-(3-Fluoro-2-pyridyl)-ingenol] | 20 to 100 | ≥ 100 | ≥ 350000
COc1ccc2onc(O[C@H]3C(C)=C[C@]45C(=O)[C@@H](C=C(CO)[C@@H](O)[C@]34O)[C@H]3[C@@H](C[C@H]5C)C3(C)C)c2c1 [Compound 130, 3-O-(5-Methoxy-1,2-benzoxazol-3-yl)-ingenol] | < 20 | < 20 | 150000 to 350000
CC1=C[C@]23C(=O)[C@@H](C=C(CO)[C@@H](O)[C@]2(O)[C@H]1Oc1nccn1C)[C@H]1[C@@H](C[C@H]3C)C1(C)C [Compound 108, 3-O-(1-Methylimidazol-2-yl)-ingenol] | ≥ 100 | ≥ 100 | ≥ 350000
CC1=C[C@]23C(=O)[C@@H](C=C(CO)[C@@H](O)[C@]2(O)[C@H]1Oc1nccc2ccccc12)[C@H]1[C@@H](C[C@H]3C)C1(C)C [Compound 119, 3-O-(1-Isoquinolyl)-ingenol] | 20 to 100 | < 20 | 150000 to 350000
CC1=C[C@]23C(=O)[C@@H](C=C(CO)[C@@H](O)[C@]2(O)[C@H]1Oc1ncccc1C=O)[C@H]1[C@@H](C[C@H]3C)C1(C)C [Compound 105, 3-O-(3-Formyl-2-pyridyl)-ingenol] | ≥ 100 | ≥ 100 | ≥ 350000
CC1=C[C@]23C(=O)[C@@H](C=C(CO)[C@@H](O)[C@]2(O)[C@H]1Oc1nccn1C1CCCC1)[C@H]1[C@@H](C[C@H]3C)C1(C)C [Compound 120, 3-O-(1-Cyclopentylimidazol-2-yl)-ingenol] | < 20 | < 20 | 150000 to 350000
CC1=C[C@]23C(=O)[C@@H](C=C(CO)[C@@H](O)[C@]2(O)[C@H]1Oc1ncccc1Cl)[C@H]1[C@@H](C[C@H]3C)C1(C)C [Compound 115, 3-O-(3-Chloro-2-pyridyl)-ingenol] | 20 to 100 | 20 to 100 | 150000 to 350000
C=CCc1c(Cl)ncnc1O[C@H]1C(C)=C[C@]23C(=O)[C@@H](C=C(CO)[C@@H](O)[C@]12O)[C@H]1[C@@H](C[C@H]3C)C1(C)C [Compound 104, 3-O-(5-Allyl-6-chloro-pyrimidin-4-yl)-ingenol] | 20 to 100 | < 20 | < 150000
